Test results taken from the NIST ThermoML archive (doi:10.1021/je030132i).
Numbers after ± are expanded uncertainties.

What was measured:
[1] = 101.3 kPa, Liquid; for viscosity: Capillary tube (Ostwald / Ubbelohde) method; for mass density: Vibrating tube method
[2] = xn = mol fraction of the nth substance listed; conditions: 101.3 kPa, Liquid, x2 = 0; for viscosity: Capillary tube (Ostwald / Ubbelohde) method; for mass density: Vibrating tube method

| viscosity ([1]; 298.15 K) [mPa·s] | viscosity ([1]; 313.15 K) [mPa·s] | viscosity ([1]; 318.65 K) [mPa·s] | viscosity ([1]; 323.15 K) [mPa·s] | mass density ([1]; 323.15 K) [kg/m3] | viscosity ([1]; 333.15 K) [mPa·s] | mass density ([1]; 333.15 K) [kg/m3] | viscosity ([1]; 343.15 K) [mPa·s] | mass density ([1]; 343.15 K) [kg/m3] | mass density ([1]; 318.65 K) [kg/m3] | viscosity ([2]; 298.15 K) [mPa·s] | viscosity ([2]; 313.15 K) [mPa·s] | viscosity ([2]; 318.65 K) [mPa·s] | viscosity ([2]; 323.15 K) [mPa·s] | mass density ([2]; 323.15 K) [kg/m3] | viscosity ([2]; 333.15 K) [mPa·s] | mass density ([2]; 333.15 K) [kg/m3] | viscosity ([2]; 343.15 K) [mPa·s] | mass density ([2]; 343.15 K) [kg/m3] | Structure (SMILES) |
| --- | --- | --- | --- | --- | --- | --- | --- | --- | --- | --- | --- | --- | --- | --- | --- | --- | --- | --- | --- |
| 0.89 ± 0.006 | 0.653 ± 0.004 | 0.595 ± 0.004 | 0.547 ± 0.004 | 988.04 ± 0.08 | 0.466 ± 0.003 | 983.12 ± 0.08 | 0.405 ± 0.003 | 977.77 ± 0.08 | – | – | – | – | – | – | – | – | – | – | O [water] |
| – | – | 186.6 ± 4.6 | 125.7 ± 2.3 | 984.9 ± 1 | 57.99 ± 0.62 | 977.3 ± 1 | 29.55 ± 0.33 | 969.58 ± 0.99 | 988.22 ± 1 | – | – | – | – | – | – | – | – | – | CC(O)CNCC(C)O (stereo unspecified) [N-(2-hydroxypropyl)-2-hydroxy-1-propanamine] |
| – | – | – | – | – | – | – | – | – | – | 0.89 ± 0.006 | 0.653 ± 0.004 | 0.595 ± 0.004 | 0.547 ± 0.004 | 988.04 ± 0.08 | 0.466 ± 0.003 | 983.12 ± 0.08 | 0.405 ± 0.003 | 977.77 ± 0.08 | O [water] + CC(O)CNCC(C)O |
